Measured values: BindingDB's records for doi:10.1124/jpet.300.2.478 (Abbott Laboratories, 2002)

How the values were obtained:
[1] = target: T1, Alpha-1B adrenergic receptor (Homo sapiens, UniProt P35368)
T1 sequence (P35368 whole entry): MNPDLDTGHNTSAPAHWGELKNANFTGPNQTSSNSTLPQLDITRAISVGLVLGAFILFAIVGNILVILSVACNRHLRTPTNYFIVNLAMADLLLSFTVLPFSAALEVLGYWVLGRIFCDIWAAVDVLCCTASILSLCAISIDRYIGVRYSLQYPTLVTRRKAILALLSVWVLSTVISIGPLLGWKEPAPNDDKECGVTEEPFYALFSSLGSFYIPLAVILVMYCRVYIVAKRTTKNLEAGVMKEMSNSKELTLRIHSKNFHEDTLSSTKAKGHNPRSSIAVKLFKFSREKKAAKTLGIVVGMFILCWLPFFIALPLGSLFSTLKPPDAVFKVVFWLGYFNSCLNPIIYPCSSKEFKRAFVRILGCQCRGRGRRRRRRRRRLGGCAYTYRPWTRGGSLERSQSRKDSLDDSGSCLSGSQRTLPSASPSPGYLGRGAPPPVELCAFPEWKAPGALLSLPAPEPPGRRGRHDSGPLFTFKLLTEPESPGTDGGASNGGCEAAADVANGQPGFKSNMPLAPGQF

[2] = target: T2, Alpha-1D adrenergic receptor (Homo sapiens, UniProt P25100)
T2 sequence (P25100 whole entry): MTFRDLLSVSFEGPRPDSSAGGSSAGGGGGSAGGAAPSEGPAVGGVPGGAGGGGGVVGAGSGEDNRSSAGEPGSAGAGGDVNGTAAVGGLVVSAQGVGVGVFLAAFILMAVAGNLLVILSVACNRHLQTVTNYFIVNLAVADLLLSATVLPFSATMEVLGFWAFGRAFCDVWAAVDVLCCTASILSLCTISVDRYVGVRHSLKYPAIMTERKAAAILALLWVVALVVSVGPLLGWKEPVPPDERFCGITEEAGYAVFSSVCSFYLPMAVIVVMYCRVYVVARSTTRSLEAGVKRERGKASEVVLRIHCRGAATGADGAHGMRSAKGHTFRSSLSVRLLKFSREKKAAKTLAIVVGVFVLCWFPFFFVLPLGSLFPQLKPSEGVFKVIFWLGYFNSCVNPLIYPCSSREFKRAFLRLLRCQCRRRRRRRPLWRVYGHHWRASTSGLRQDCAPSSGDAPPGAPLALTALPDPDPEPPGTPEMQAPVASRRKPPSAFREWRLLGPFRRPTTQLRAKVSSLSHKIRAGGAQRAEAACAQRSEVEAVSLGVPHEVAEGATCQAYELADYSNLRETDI

Row | SMILES | Ki [1] [nM] | Ki [2] [nM]
1 | COc1cccc2c1C1CN(CCCCn3c(=O)[nH]c4c(sc5ncc(-c6ccccc6)nc54)c3=O)CC1CO2 (stereo not given) [CAS_172307] | 25.1 | 0.91
2 | CCOc1ccccc1OCCN[C@H](C)Cc1ccc(OC)c(S(N)(=O)=O)c1 [5-[(2R)-2-{[2-(2-ethoxyphenoxy)ethyl]amino}propyl]-2-methoxybenzenesulfonamide] | 0.6 | 0.056
3 | COc1cc2nc(N3CCN(C(=O)C4CCCO4)CC3)nc(N)c2cc1OC (stereo not given) [6,7-dimethoxy-2-[4-(tetrahydrofuran-2-ylcarbonyl)piperazin-1-yl]quinazolin-4-amine] | – | 0.66
